{
  "source": "patent US20250032506A1",
  "about": "“GLUCOCORTICOID RECEPTOR BLOCKADE WITH MIFEPRISTONE TO SENSITIZE PANCREATIC CANCER TO IMMUNOTHERAPY” (BOARD OF REGENTS, THE UNIVERSITY OF TEXAS SYSTEM, priority 2021, published 2025)",
  "key": {"[1]": {"tested_on": "orthotopic HY24160 tumors", "description": "(§1) Orthotopic pancreatic tumor size was determined by MRI. Subcutaneous tumor size was measured with a caliper. […] Animal body weight was measured throughout the study."}, "BXPC-3 cells": {"tested_on": "BXPC-3 cells", "experiment": "qPCR and immunoblotting of PD-L1 and MHC-I in BXPC-3 cells", "format": "cell-based, human", "conditions": "MIFE 20 μM (qPCR) or indicated doses (immunoblot), 72 h", "text": "The male PDAC cell lines HY24409 and HY24160 and the female PDAC cell line HY19636 were established from KPC mice (p48-Cre; Kras^LSL-G12D/+; Trp53^loxP/+) that were backcrossed to a C57BL/6 background (purity: ˜ 98%). (See Bardeesy, N., et al. supra). The human PDAC cell lines SU86.86 ([…]), SW1990 ([…]), BXPC-3 ([…]), Miapaca-2 ([…]), Capan-1 ([…]), ASPC-1 ([…]), Hs766T ([…]), Colo357/FG ([…]), L3.6PL ([…]), Panc28 ([…]), Capan-2 ([…]), CF-Pac-1 ([…]), Panc3 (sex unknown), Panc1 ([…]), Panc48 (sex unknown), and HPAC ([…]) were from Mien-Chie Hung's lab stock. The HY24409, HY24160, HY19636, SU86.86, SW1990, and Hs766T cell lines were cultured in RPMI 1640 (Corning, 10-041-CV) supplemented with 10% fetal bovine serum (FBS) (Gibco, 10438-034) and 1% penicillin/streptomycin (Sigma, P4333). The BXPC-3, Miapaca-2, Capan-1, ASPC-1, Colo357/FG, L3.6PL, Panc28, Capan-2, CF-Pac-1, Panc3, Panc1, Panc48, and HPAC cell lines were cultured in DMEM/F-12 (Corning, 10-092-CV) supplemented with 10% FBS and 1% penicillin/streptomycin. Cells were grown in a humidified incubator with 5% CO2 at 37° C., and low-passage stocks were maintained in a centralized lab cell bank. Short tandem repeat profiling and mycoplasma tests were done by the Cytogenetics and Cell Authentication Core at MD Anderson Cancer Center. […]"}, "HY19636 cells": {"tested_on": "HY19636 cells", "experiment": "qPCR and flow cytometry of PD-L1, MHC-I and B2M in HY19636 cells", "format": "cell-based, mouse", "conditions": "MIFE 20 μM, 48 h", "text": "The male PDAC cell lines HY24409 and HY24160 and the female PDAC cell line HY19636 were established from KPC mice (p48-Cre; Kras^LSL-G12D/+; Trp53^loxP/+) that were backcrossed to a C57BL/6 background (purity: ˜ 98%). (See Bardeesy, N., et al. supra). The human PDAC cell lines SU86.86 ([…]), SW1990 ([…]), BXPC-3 ([…]), Miapaca-2 ([…]), Capan-1 ([…]), ASPC-1 ([…]), Hs766T ([…]), Colo357/FG ([…]), L3.6PL ([…]), Panc28 ([…]), Capan-2 ([…]), CF-Pac-1 ([…]), Panc3 (sex unknown), Panc1 ([…]), Panc48 (sex unknown), and HPAC ([…]) were from Mien-Chie Hung's lab stock. The HY24409, HY24160, HY19636, SU86.86, SW1990, and Hs766T cell lines were cultured in RPMI 1640 (Corning, 10-041-CV) supplemented with 10% fetal bovine serum (FBS) (Gibco, 10438-034) and 1% penicillin/streptomycin (Sigma, P4333). The BXPC-3, Miapaca-2, Capan-1, ASPC-1, Colo357/FG, L3.6PL, Panc28, Capan-2, CF-Pac-1, Panc3, Panc1, Panc48, and HPAC cell lines were cultured in DMEM/F-12 (Corning, 10-092-CV) supplemented with 10% FBS and 1% penicillin/streptomycin. Cells were grown in a humidified incubator with 5% CO2 at 37° C., and low-passage stocks were maintained in a centralized lab cell bank. Short tandem repeat profiling and mycoplasma tests were done by the Cytogenetics and Cell Authentication Core at MD Anderson Cancer Center.\nImmunity 54, 1561-1577 e1567 (2021)."}, "[2]": {"tested_on": "tumors formed by KPC cell lines (HY24409, HY24160)", "experiment": "Tumor growth in immunodeficient NSG mice implanted with KPC cell lines", "format": "in vivo, mouse", "conditions": "mifepristone oral gavage 60 mg kg-1, twice every 3 days", "description": "as §1"}, "[3]": {"tested_on": "orthotopic HY24409 tumors", "experiment": "Immune checkpoint blockade experiments in male C57BL/6 mice bearing orthotopic HY24409 tumors", "format": "in vivo, mouse", "conditions": "compared with the vehicle+IgG control", "description": "as §1"}, "[4]": {"tested_on": "orthotopic HY24409 tumors", "experiment": "Orthotopic HY24409 pancreatic tumors in C57BL/6 mice", "format": "in vivo, mouse", "description": "as §1"}, "[5]": {"conditions": "flow cytometry and qPCR, HY24160 tumors"}},
  "data": [
    {"smiles": "CC#C[C@]1(O)CC[C@H]2[C@@H]3CCC4=CC(=O)CCC4=C3[C@@H](c3ccc(N(C)C)cc3)C[C@@]21C", "note": "[mifepristone]", "values": [
      {"measurement": "tumor growth", "setting": "[1]; C57BL/6 mice, orthotopic HY24160, CTL-dependent manner", "result": "inhibited tumor growth"},
      {"measurement": "MHC-I expression levels", "setting": "[1]; [5]", "result": "upregulated"},
      {"measurement": "expression levels of PD-L1 and known GR-activated genes", "setting": "[1]; [5]", "result": "downregulated"},
      {"measurement": "body weight", "setting": "[1]; mouse, in vivo", "result": "without affecting body weight"},
      {"measurement": "infiltration and activity of cytotoxic T cells", "setting": "[1]; mouse, in vivo", "result": "promoted"},
      {"measurement": "MHC-I at both mRNA and protein levels", "setting": "BXPC-3 cells", "result": "significantly upregulated"},
      {"measurement": "PD-L1 at both mRNA and protein levels", "setting": "BXPC-3 cells", "result": "downregulated"},
      {"measurement": "MHC-I and B2M at mRNA and surface protein levels", "setting": "HY19636 cells", "result": "upregulated"},
      {"measurement": "PD-L1 at mRNA and surface protein levels", "setting": "HY19636 cells", "result": "downregulated"},
      {"measurement": "growth of tumors formed by KPC cell lines", "setting": "[2]", "result": "neither mifepristone treatment (FIGS. 11A-11J) nor shRNA-mediated GR knockdown (FIGS. 11K-11N) affected the growth of tumors"},
      {"measurement": "survival", "setting": "[3]", "result": "did not lead to a significant improvement in survival"},
      {"measurement": "body weight", "setting": "[4]; C57BL/6 mice bearing orthotopic HY24409 tumors, mifepristone 60 mg kg-1", "result": "without significant loss of body weight"},
      {"measurement": "orthotopic pancreatic tumor volume (magnetic resonance imaging) and weight", "setting": "[4]; C57BL/6 mice, HY24409, mifepristone oral gavage 60 mg kg-1, twice every 3 days", "result": "substantial reductions"},
      {"measurement": "tumor growth inhibition upon antibody-mediated depletion of CD8+ T cells", "setting": "[4]; C57BL/6 mice, orthotopic HY24409, mifepristone plus anti-CD8 antibody", "result": "abolished"},
      {"measurement": "reduction in tumor weight at the endpoint", "setting": "[4]; C57BL/6 mice, orthotopic HY24409, vs vehicle or control shRNA", "result": 67.7, "unit": "%"}
    ]}
  ]
}
